Assay results: publication PMC5218480 (PLoS ONE, 2017)

System: MV-4-11 cells
Test: Gene expression microarray analysis (Affymetrix PrimeView) and GSEA
Type: cell-based, human
Design: RFU PODN (11730768_x_at) / Fold change /veh PODN (11730768_x_at) / RFU LINC00158 (11744669_a_at) / Fold change /veh LINC00158 (11744669_a_at) / RFU DUSP10 (11751237_a_at) / Fold change /veh DUSP10 (11751237_a_at) / RFU ID3 (11757404_x_at) / Fold change /veh ID3 (11757404_x_at) / RFU PLEKHG5 (11737974_s_at) / Fold change /veh PLEKHG5 (11737974_s_at) / RFU LRRC4B (11730491_at) / Fold change /veh LRRC4B (11730491_at) / RFU GIMAP4 (11747438_a_at) / Fold change /veh GIMAP4 (11747438_a_at) / RFU KRT8 (11758183_x_at) / Fold change /veh KRT8 (11758183_x_at) / RFU CNN1 (11734310_a_at) / Fold change /veh CNN1 (11734310_a_at) / RFU VPS37D (11726825_at) / Fold change /veh VPS37D (11726825_at) / RFU C10orf10 (11716522_x_at) / Fold change /veh C10orf10 (11716522_x_at) / RFU KIR2DL2 /// KIR2DL4 /// KIR2DL5A /// KIR2DL5B /// KIR2DS1 /// KIR2DS2 /// KIR2DS3 /// KIR2DS4 /// KIR3DL3 /// KIR3DL3 /// KIR3DS1 (11738374_at) / Fold change /veh KIR2DL2 /// KIR2DL4 /// KIR2DL5A /// KIR2DL5B /// KIR2DS1 /// KIR2DS2 /// KIR2DS3 /// KIR2DS4 /// KIR3DL3 /// KIR3DL3 /// KIR3DS1 (11738374_at) / RFU C1QL1 (11718748_at) / Fold change /veh C1QL1 (11718748_at) / RFU TMPRSS4 (11747572_a_at) / Fold change /veh TMPRSS4 (11747572_a_at) / RFU HAMP (11756126_x_at) / Fold change /veh HAMP (11756126_x_at) / RFU RNFT2 (11725882_a_at) / Fold change /veh RNFT2 (11725882_a_at) / RFU NR4A2 (11747474_a_at) / Fold change /veh NR4A2 (11747474_a_at) / RFU ABCC12 (11746883_a_at) / Fold change /veh ABCC12 (11746883_a_at) / RFU TMEM136 (11760407_x_at) / Fold change /veh TMEM136 (11760407_x_at) / RFU CLDN22 /// WWC2 (11732394_at) / Fold change /veh CLDN22 /// WWC2 (11732394_at) / RFU HLA-DPB1 (11760878_x_at) / Fold change /veh HLA-DPB1 (11760878_x_at) / RFU SPINT1 (11716480_a_at) / Fold change /veh SPINT1 (11716480_a_at) / RFU GAP43 (11754022_s_at) / Fold change /veh GAP43 (11754022_s_at) / RFU A4GNT (11735810_at) / Fold change /veh A4GNT (11735810_at) / RFU PRB3 (11715151_x_at) / Fold change /veh PRB3 (11715151_x_at) / RFU TUBB4B (11761932_at) / Fold change /veh TUBB4B (11761932_at) / RFU CAPN14 (11732068_a_at) / Fold change /veh CAPN14 (11732068_a_at) / RFU TMCC2 (11721928_a_at) / Fold change /veh TMCC2 (11721928_a_at) / RFU IRGQ (11745062_a_at) / Fold change /veh IRGQ (11745062_a_at) / RFU FAM174B (11720279_a_at) / Fold change /veh FAM174B (11720279_a_at) / RFU TMPRSS4 (11748680_a_at) / Fold change /veh TMPRSS4 (11748680_a_at) / RFU FAM212B (11763350_a_at) / Fold change /veh FAM212B (11763350_a_at) / RFU PLEKHG5 (11743358_a_at) / Fold change /veh PLEKHG5 (11743358_a_at) / RFU ZSCAN30 (11745921_a_at) / Fold change /veh ZSCAN30 (11745921_a_at) / RFU CMKLR1 (11741424_a_at) / Fold change /veh CMKLR1 (11741424_a_at) / RFU LOC101060620 /// MAPK8IP1 (11723275_at) / Fold change /veh LOC101060620 /// MAPK8IP1 (11723275_at) / RFU SPTSSB (11747773_x_at) / Fold change /veh SPTSSB (11747773_x_at) / RFU PRSS12 (11739890_at) / Fold change /veh PRSS12 (11739890_at) / RFU BIN1 (11741810_x_at) / Fold change /veh BIN1 (11741810_x_at) / RFU WNT11 (11732464_a_at) / Fold change /veh WNT11 (11732464_a_at) / RFU C10orf10 (11716521_a_at) / Fold change /veh C10orf10 (11716521_a_at) / RFU C5orf56 (11738089_at) / Fold change /veh C5orf56 (11738089_at) / RFU CYB561 (11721691_x_at) / Fold change /veh CYB561 (11721691_x_at) / RFU ANKRD19P (11752326_a_at) / Fold change /veh ANKRD19P (11752326_a_at) / RFU OR2T12 /// OR2T33 /// OR2T8 (11738714_s_at) / Fold change /veh OR2T12 /// OR2T33 /// OR2T8 (11738714_s_at) / RFU VCAN (11748164_a_at) / Fold change /veh VCAN (11748164_a_at) / RFU JSRP1 (11732532_at) / Fold change /veh JSRP1 (11732532_at) / RFU KRTAP10-11 (11738290_x_at) / Fold change /veh KRTAP10-11 (11738290_x_at) / RFU MYO3A (11730013_a_at) / Fold change /veh MYO3A (11730013_a_at) / RFU EBF3 (11725865_a_at) / Fold change /veh EBF3 (11725865_a_at) / RFU CAMK2N1 (11719241_x_at) / Fold change /veh CAMK2N1 (11719241_x_at) / RFU C5orf56 (11738088_a_at) / Fold change /veh C5orf56 (11738088_a_at) / RFU OLFML3 (11715873_a_at) / Fold change /veh OLFML3 (11715873_a_at) / RFU LOC100653217 /// NTM (11731650_a_at) / Fold change /veh LOC100653217 /// NTM (11731650_a_at) / RFU MAPK11 (11762145_a_at) / Fold change /veh MAPK11 (11762145_a_at) / RFU FIZ1 (11724087_x_at) / Fold change /veh FIZ1 (11724087_x_at) / RFU OASL (11726364_x_at) / Fold change /veh OASL (11726364_x_at) / RFU SOX15 (11748057_x_at) / Fold change /veh SOX15 (11748057_x_at) / RFU CD79A (11719716_a_at) / Fold change /veh CD79A (11719716_a_at) / RFU HIST1H1D (11736915_at) / Fold change /veh HIST1H1D (11736915_at) / RFU CASKIN2 (11723855_a_at) / Fold change /veh CASKIN2 (11723855_a_at) / RFU LOC730098 (11760151_x_at) / Fold change /veh LOC730098 (11760151_x_at) / RFU OR4N2 (11742367_at) / Fold change /veh OR4N2 (11742367_at) / RFU PRRT2 (11749266_a_at) / Fold change /veh PRRT2 (11749266_a_at) / RFU SNX32 (11753110_a_at) / Fold change /veh SNX32 (11753110_a_at) / RFU CDHR5 (11726645_a_at) / Fold change /veh CDHR5 (11726645_a_at) / RFU RCAN1 (11760418_a_at) / Fold change /veh RCAN1 (11760418_a_at) / RFU FAM167A (11723789_a_at) / Fold change /veh FAM167A (11723789_a_at) / RFU FAM26E (11764081_at) / Fold change /veh FAM26E (11764081_at) / RFU ISYNA1 (11749810_s_at) / Fold change /veh ISYNA1 (11749810_s_at) / RFU ACY1 (11761880_at) / Fold change /veh ACY1 (11761880_at) / RFU 11764098_at / Fold change /veh 11764098_at / RFU SAMD14 (11745864_x_at) / Fold change /veh SAMD14 (11745864_x_at) / RFU NPB (11741838_a_at) / Fold change /veh NPB (11741838_a_at) / RFU TMPRSS6 (11731388_a_at) / Fold change /veh TMPRSS6 (11731388_a_at) / RFU KRTAP10-2 (11738614_at) / Fold change /veh KRTAP10-2 (11738614_at) / RFU ARHGAP8 /// PRR5-ARHGAP8 (11727945_x_at) / Fold change /veh ARHGAP8 /// PRR5-ARHGAP8 (11727945_x_at) / RFU KRTAP5-7 /// NADSYN1 (11734609_at) / Fold change /veh KRTAP5-7 /// NADSYN1 (11734609_at) / RFU RASL12 (11751679_a_at) / Fold change /veh RASL12 (11751679_a_at) / RFU CDKN2B (11736163_a_at) / Fold change /veh CDKN2B (11736163_a_at) / RFU PRF1 (11729649_at) / Fold change /veh PRF1 (11729649_at) / RFU, ZNF638 /// ZNF638-IT1 / Fold change vs veh, ZNF638 /// ZNF638-IT1 / RFU, PANK3 / Fold change vs veh, PANK3 / RFU, SH3YL1 / Fold change vs veh, SH3YL1 / RFU, ZEB2 / Fold change vs veh, ZEB2 / RFU, NRIP1 / Fold change vs veh, NRIP1 / RFU, PTTG1IP / Fold change vs veh, PTTG1IP / RFU, CAPN2 / Fold change vs veh, CAPN2 / RFU, MED14 / Fold change vs veh, MED14 / RFU, SNORA58 / Fold change vs veh, SNORA58 / RFU, C1orf63 / Fold change vs veh, C1orf63 / RFU, LRRFIP1 / Fold change vs veh, LRRFIP1 / RFU, NDUFAF7 / Fold change vs veh, NDUFAF7 / RFU, SLC12A2 / Fold change vs veh, SLC12A2 / RFU, IBTK / Fold change vs veh, IBTK / RFU, ESF1 / Fold change vs veh, ESF1 / Fold change vs veh, TMEM50B / RFU, TAOK1 / Fold change vs veh, TAOK1 / RFU, ACBD3 / Fold change vs veh, ACBD3 / RFU, TMA16 / Fold change vs veh, TMA16 / RFU, RWDD3 / Fold change vs veh, RWDD3 / RFU, BCAT1 / Fold change vs veh, BCAT1 / RFU, EDEM3 / Fold change vs veh, EDEM3 / RFU, TMEM33 / Fold change vs veh, TMEM33 / RFU, WDR75 / Fold change vs veh, WDR75 / RFU, AHCTF1 / Fold change vs veh, AHCTF1 / RFU, TFRC / Fold change vs veh, TFRC / RFU, ZDHHC17 / Fold change vs veh, ZDHHC17 / RFU, NOM1 / Fold change vs veh, NOM1 / RFU, ARL8B / Fold change vs veh, ARL8B / RFU, ZBTB11 / Fold change vs veh, ZBTB11 / RFU, TAMM41 / Fold change vs veh, TAMM41 / RFU, KIAA1704 /// LOC100996395 / Fold change vs veh, KIAA1704 /// LOC100996395 / RFU, ING1 / Fold change vs veh, ING1 / RFU, TRMT61B / Fold change vs veh, TRMT61B / RFU, FUBP3 / Fold change vs veh, FUBP3 / RFU, TP53 / Fold change vs veh, TP53 / RFU, TNKS2 / Fold change vs veh, TNKS2 / RFU, ZFP14 / Fold change vs veh, ZFP14 / RFU, ACTR2 / Fold change vs veh, ACTR2 / RFU, PPP3R1 / Fold change vs veh, PPP3R1 / RFU, PIK3R1 / Fold change vs veh, PIK3R1 / RFU, HNRNPA1 / Fold change vs veh, HNRNPA1 / RFU, RNF170 / Fold change vs veh, RNF170 / RFU, ZNF28 / Fold change vs veh, ZNF28 / RFU, RNGTT / Fold change vs veh, RNGTT / RFU, OGT / Fold change vs veh, OGT / RFU, BRD1 / Fold change vs veh, BRD1 / RFU, MARS / Fold change vs veh, MARS / RFU, ZNF655 / Fold change vs veh, ZNF655 / RFU, FAHD1 / Fold change vs veh, FAHD1 / RFU, BDP1 / Fold change vs veh, BDP1 / RFU, LRRCC1 / Fold change vs veh, LRRCC1 / RFU, ARID1A / Fold change vs veh, ARID1A / RFU, ZNF146 / Fold change vs veh, ZNF146 / RFU, ZNF330 / Fold change vs veh, ZNF330 / RFU, GPN3 / Fold change vs veh, GPN3 / RFU, C9orf123 / Fold change vs veh, C9orf123 / RFU, N4BP2L2 / Fold change vs veh, N4BP2L2 / RFU, ARFIP1 / Fold change vs veh, ARFIP1 / RFU, FAM179B / Fold change vs veh, FAM179B / RFU, BCL10 / Fold change vs veh, BCL10 / RFU, UHRF1BP1L / Fold change vs veh, UHRF1BP1L / RFU, BET1 / Fold change vs veh, BET1 / RFU, CNOT2 / Fold change vs veh, CNOT2 / RFU, ZNF268 / Fold change vs veh, ZNF268 / Fold change vs veh, ZNF507 / RFU, DGCR2 / Fold change vs veh, DGCR2 / RFU, WDSUB1 / Fold change vs veh, WDSUB1 / Fold change vs veh, HSP90B1 /// MIR3652 / RFU, ADSS / Fold change vs veh, ADSS / RFU, GK / Fold change vs veh, GK / RFU, ZNF148 / Fold change vs veh, ZNF148 / RFU, TAF9 / Fold change vs veh, TAF9 / RFU, SLC1A5 / Fold change vs veh, SLC1A5 / RFU, SLMO2 / Fold change vs veh, SLMO2 / RFU, ABCC4 / Fold change vs veh, ABCC4 / RFU, LOC101060439 /// RAP1B / Fold change vs veh, LOC101060439 /// RAP1B / RFU, RFX7 / Fold change vs veh, RFX7 / RFU, GTPBP10 / Fold change vs veh, GTPBP10 / RFU, CNEP1R1 / Fold change vs veh, CNEP1R1 / RFU, BIVM-ERCC5 /// ERCC5 / Fold change vs veh, BIVM-ERCC5 /// ERCC5 / RFU, ILF3 / Fold change vs veh, ILF3 / RFU 11762660_at / Fold change /veh 11762660_at / RFU VCAN (11757783_s_at) / Fold change /veh VCAN (11757783_s_at) / RFU DDX43 (11728927_at) / Fold change /veh DDX43 (11728927_at) / RFU KRT8 (11758188_x_at) / Fold change /veh KRT8 (11758188_x_at) / RFU NKD1 (11759106_at) / Fold change /veh NKD1 (11759106_at) / RFU SRD5A1 (11742802_a_at) / Fold change /veh SRD5A1 (11742802_a_at) / RFU TPSAB1 /// TPSB2 (11721975_s_at) / Fold change /veh TPSAB1 /// TPSB2 (11721975_s_at) / RFU GSTM3 (11746129_a_at) / Fold change /veh GSTM3 (11746129_a_at) / RFU IL23R (11737362_x_at) / Fold change /veh IL23R (11737362_x_at) / RFU TMEM51 (11727254_a_at) / Fold change /veh TMEM51 (11727254_a_at) / RFU PIWIL2 (11732686_x_at) / Fold change /veh PIWIL2 (11732686_x_at) / RFU ORM1 (11744905_x_at) / Fold change /veh ORM1 (11744905_x_at) / RFU CCDC152 (11743942_at) / Fold change /veh CCDC152 (11743942_at) / RFU ECM1 (11717891_a_at) / Fold change /veh ECM1 (11717891_a_at) / RFU IL23R (11748794_a_at) / Fold change /veh IL23R (11748794_a_at) / RFU TNFAIP8L3 (11732012_x_at) / Fold change /veh TNFAIP8L3 (11732012_x_at) / RFU MBOAT4 (11741988_at) / Fold change /veh MBOAT4 (11741988_at) / RFU 11764193_at / Fold change /veh 11764193_at / RFU TMEM53 (11763286_at) / Fold change /veh TMEM53 (11763286_at) / RFU MAGEB2 (11727129_at) / Fold change /veh MAGEB2 (11727129_at) / RFU TMEM200A (11744735_a_at) / Fold change /veh TMEM200A (11744735_a_at) / RFU CCDC152 (11751479_a_at) / Fold change /veh CCDC152 (11751479_a_at) / RFU FAM211A (11726209_a_at) / Fold change /veh FAM211A (11726209_a_at) / RFU RGS16 (11746705_a_at) / Fold change /veh RGS16 (11746705_a_at) / RFU VCAN (11755009_s_at) / Fold change /veh VCAN (11755009_s_at) / RFU RHOB (11743442_s_at) / Fold change /veh RHOB (11743442_s_at) / RFU RGS16 (11720943_a_at) / Fold change /veh RGS16 (11720943_a_at) / RFU RGS16 (11720944_at) / Fold change /veh RGS16 (11720944_at) / RFU, VPS4B / Fold change vs veh, VPS4B / RFU, CREB1 / Fold change vs veh, CREB1 / RFU, DNAJC13 / Fold change vs veh, DNAJC13 / RFU, GNAQ / Fold change vs veh, GNAQ / RFU, CDK5R1 / Fold change vs veh, CDK5R1 / RFU, ZRANB3 / Fold change vs veh, ZRANB3 / RFU, CUL4A / Fold change vs veh, CUL4A / RFU, CCNY / Fold change vs veh, CCNY / RFU, UFL1 / Fold change vs veh, UFL1 / RFU, COG3 / Fold change vs veh, COG3 / RFU, DIAPH2 / Fold change vs veh, DIAPH2 / RFU, SKA2 / Fold change vs veh, SKA2 / RFU, AFF3 / Fold change vs veh, AFF3 / RFU, LMF1 / Fold change vs veh, LMF1 / RFU, IPO11 / Fold change vs veh, IPO11 / RFU, DFFB / Fold change vs veh, DFFB / RFU, FOXP1 / Fold change vs veh, FOXP1 / RFU, CARD8 / Fold change vs veh, CARD8 / RFU, STRN3 / Fold change vs veh, STRN3 / RFU, ADK / Fold change vs veh, ADK / RFU, RASSF2 / Fold change vs veh, RASSF2 / RFU, WIPF1 / Fold change vs veh, WIPF1 / RFU, LARP1B / Fold change vs veh, LARP1B / RFU, RASA1 / Fold change vs veh, RASA1 / RFU, RB1 / Fold change vs veh, RB1 / RFU, PPFIA1 / Fold change vs veh, PPFIA1 / RFU, MAT2A / Fold change vs veh, MAT2A / RFU, CCT5 / Fold change vs veh, CCT5 / RFU, WDR92 / Fold change vs veh, WDR92 / RFU, CUX1 / Fold change vs veh, CUX1 / RFU, TTC7A / Fold change vs veh, TTC7A / RFU, TMEM135 / Fold change vs veh, TMEM135 / RFU, DEPTOR / Fold change vs veh, DEPTOR / RFU, CPM / Fold change vs veh, CPM / RFU, DNAJB6 / Fold change vs veh, DNAJB6 / RFU, CACNA2D3 / Fold change vs veh, CACNA2D3 / RFU, DTX4 / Fold change vs veh, DTX4 / RFU, TFCP2 / Fold change vs veh, TFCP2 / RFU, GMCL1 /// GMCL1P1 / Fold change vs veh, GMCL1 /// GMCL1P1 / RFU, AEBP2 / Fold change vs veh, AEBP2 / RFU, SNHG1 /// SNORD22 /// SNORD25 /// SNORD26 /// SNORD27 /// SNORD28 /// SNORD29 /// SNORD31 / Fold change vs veh, SNHG1 /// SNORD22 /// SNORD25 /// SNORD26 /// SNORD27 /// SNORD28 /// SNORD29 /// SNORD31 / Fold change (Aza/veh), C12orf56 (ProbeSet 11735607_a_at) / Fold change (ACY-1035/veh), C12orf56 (ProbeSet 11735607_a_at) / Fold change (Aza/veh), FGFR1OP (ProbeSet 11751329_s_at) / Fold change (ACY-1035/veh), FGFR1OP (ProbeSet 11751329_s_at) / Fold change (Aza/veh), VPS36 (ProbeSet 11739960_a_at) / Fold change (ACY-1035/veh), VPS36 (ProbeSet 11739960_a_at) / RFU SYPL1 (11715823_x_at) / Fold change /veh SYPL1 (11715823_x_at) / RFU IGFBP7 (11715501_s_at) / Fold change /veh IGFBP7 (11715501_s_at) / RFU REEP3 (11722064_at) / Fold change /veh REEP3 (11722064_at) / RFU IGLL1 (11728026_x_at) / Fold change /veh IGLL1 (11728026_x_at): dose or concentration left out as unconfirmed
Details: MV-4-11 cells, 48 hours

Nc1ccc(-c2cccs2)cc1NC(=O)c1ccc2c(c1)cc(C1CC1)n2CCN1CCOCC1 [ACY-1035]
Fold change /veh ACY1 (11761880_at): 1.19
